ChEMBL document CHEMBL1201862, “PubChem BioAssay data set” (2004)
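Interpolation was linear, between the two tested concentrations surrounding the appropriate level; five concentrations were tested over 48 hours in 96-well plates. GI50 = concentration required for 50% inhibition of growth.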 The source made the active and inactive calls. Rule as the data show it: active = GI50 up to about 1.1 µM and inactive = higher.

Experiments:
Assay in all cases: NCI anticancer screen, dose series, 48 h
786-0 = system: 786-0
A498 = system: A498
A549 = system: A549
ACHN = system: ACHN
BT-549 = system: BT-549
CAKI-1 = system: CAKI-1
CCRF-CEM = system: CCRF-CEM
COLO 205 = system: COLO 205
DU-145 = system: DU-145
EKVX = system: EKVX
HCC 2998 = system: HCC 2998
HCT-116 = system: HCT-116
HCT-15 = system: HCT-15
HL-60 = system: HL-60
HOP-62 = system: HOP-62
HOP-92 = system: HOP-92
HT-29 = system: HT-29
Hs-578T = system: Hs-578T
IGROV-1 = system: IGROV-1
K562 = system: K562
KM12 = system: KM12
LOX IMVI = system: LOX IMVI
M14 = system: M14
MCF7 = system: MCF7
MDA-MB-231 = system: MDA-MB-231
MDA-MB-435 = system: MDA-MB-435
MDA-N = system: MDA-N
MOLT-4 = system: MOLT-4
Malme-3M = system: Malme-3M
NCI-H226 = system: NCI-H226
NCI-H23 = system: NCI-H23
NCI-H460 = system: NCI-H460
NCI-H522 = system: NCI-H522
NCI/ADR-RES = system: NCI/ADR-RES
OVCAR-3 = system: OVCAR-3
OVCAR-4 = system: OVCAR-4
OVCAR-5 = system: OVCAR-5
OVCAR-8 = system: OVCAR-8
PC-3 = system: PC-3
RPMI-8226 = system: RPMI-8226
RXF 393 = system: RXF 393
SF-268 = system: SF-268
SF-295 = system: SF-295
SF-539 = system: SF-539
SK-MEL-28 = system: SK-MEL-28
SK-MEL-2 = system: SK-MEL-2
SK-MEL-5 = system: SK-MEL-5
SK-OV-3 = system: SK-OV-3
SN12C = system: SN12C
SNB-19 = system: SNB-19
SNB-75 = system: SNB-75
SR = system: SR
SW-620 = system: SW-620
T47D = system: T47D
TK-10 = system: TK-10
U-251 = system: U-251
UACC-257 = system: UACC-257
UACC-62 = system: UACC-62
UO-31 = system: UO-31

`COc1ccc2c(c1)CCCN2S(=O)(=O)c1ccccc1[N+](=O)[O-]` was tested, and the GI50 (786-0) was 58.5 µM (inactive), the GI50 (A498) was 33.4 µM (inactive) and the GI50 (A549) was 53.7 µM (inactive). For the same compound, the GI50 (ACHN) was 41.1 µM (inactive), the GI50 (BT-549) was 9.06 µM (inactive) and the GI50 (CAKI-1) was > 89.5 µM (inactive). For the same compound, the GI50 (CCRF-CEM) was 33.7 µM (inactive), the GI50 (COLO 205) was 40.6 µM (inactive) and the GI50 (DU-145) was 74.5 µM (inactive). The GI50 (EKVX) was 56 µM (inactive), the GI50 (HCC 2998) was 35.6 µM (inactive) and the GI50 (HCT-116) was 24.2 µM (inactive). For the same compound, the GI50 (HCT-15) was 14.3 µM, the GI50 (HL-60) was 4.56 µM (inactive) and the GI50 (HOP-62) was 47.5 µM (inactive). The GI50 (HOP-92) was 42.6 µM (inactive), the GI50 (HT-29) was 21.4 µM (inactive) and the GI50 (Hs-578T) was 43.7 µM (inactive). For the same compound, the GI50 (IGROV-1) was 34.3 µM (inactive), the GI50 (K562) was 5.89 µM (inactive) and the GI50 (KM12) was 10.7 µM (inactive). For the same compound, the GI50 (LOX IMVI) was 32.4 µM (inactive), the GI50 (M14) was 40.8 µM (inactive) and the GI50 (MCF7) was 21.6 µM (inactive). For the same compound, the GI50 (MDA-MB-231) was 53.5 µM (inactive), the GI50 (MDA-MB-435) was 2.99 µM (inactive) and the GI50 (MDA-N) was 3.73 µM (inactive). The GI50 (MOLT-4) was 14.4 µM (inactive), the GI50 (Malme-3M) was 40.8 µM (inactive) and the GI50 (NCI-H226) was 44.2 µM (inactive). The GI50 (NCI-H23) was 46.2 µM (inactive), the GI50 (NCI-H460) was 26 µM (inactive) and the GI50 (NCI-H522) was 26.7 µM (inactive). The GI50 (NCI/ADR-RES) was 19.2 µM (inactive), the GI50 (OVCAR-3) was 47.8 µM (inactive) and the GI50 (OVCAR-4) was 45.7 µM (inactive). For the same compound, the GI50 (OVCAR-5) was 84.3 µM (inactive), the GI50 (OVCAR-8) was 53.7 µM (inactive) and the GI50 (PC-3) was 34.9 µM (inactive). For the same compound, the GI50 (RPMI-8226) was 29.4 µM (inactive), the GI50 (RXF 393) was 25.6 µM (inactive) and the GI50 (SF-268) was 49.5 µM (inactive). The GI50 (SF-295) was 30.5 µM (inactive), the GI50 (SF-539) was 27.7 µM (inactive) and the GI50 (SK-MEL-28) was 68.5 µM (inactive). The GI50 (SK-MEL-2) was 22.5 µM (inactive), the GI50 (SK-MEL-5) was 41.8 µM (inactive) and the GI50 (SK-OV-3) was 24 µM (inactive). For the same compound, the GI50 (SN12C) was 65.6 µM (inactive), the GI50 (SNB-19) was > 73.3 µM (inactive) and the GI50 (SNB-75) was 24.1 µM (inactive). For the same compound, the GI50 (SR) was 11.1 µM (inactive), the GI50 (SW-620) was 17.4 µM (inactive) and the GI50 (T47D) was 48.2 µM (inactive). The GI50 (TK-10) was 54.8 µM (inactive), the GI50 (U-251) was 24.3 µM (inactive) and the GI50 (UACC-257) was 71.9 µM (inactive). For the same compound, the GI50 (UACC-62) was 47.8 µM (inactive) and the GI50 (UO-31) was 43 µM (inactive).

In the case of `C=CC(=O)C#Cc1cnc(OC)nc1OC`, the GI50 (786-0) is reported as 4.15 µM (inactive), the GI50 (A498) is reported as 34.3 µM (inactive) and the GI50 (A549) is reported as 59 µM (inactive). The GI50 (ACHN) was 7.43 µM (inactive), the GI50 (BT-549) was 12.3 µM (inactive) and the GI50 (CAKI-1) was 7.29 µM (inactive). The GI50 (CCRF-CEM) was 0.515 µM (active), the GI50 (COLO 205) was 3.83 µM (inactive) and the GI50 (DU-145) was 37.2 µM (inactive). The GI50 (EKVX) was 24.4 µM (inactive), the GI50 (HCC 2998) was 19 µM (inactive) and the GI50 (HCT-116) was 9.59 µM (inactive). The GI50 (HCT-15) was 10.7 µM, the GI50 (HL-60) was 1.09 µM (active) and the GI50 (HOP-62) was 22.8 µM (inactive). For the same compound, the GI50 (HOP-92) was 1.39 µM (inactive), the GI50 (HT-29) was 16.1 µM (inactive) and the GI50 (Hs-578T) was 33.3 µM (inactive). The GI50 (IGROV-1) was 22.9 µM (inactive), the GI50 (K562) was 1.38 µM (inactive) and the GI50 (KM12) was 13.4 µM (inactive). The GI50 (LOX IMVI) was 5.46 µM (inactive), the GI50 (M14) was 14.9 µM (inactive) and the GI50 (MCF7) was 5.13 µM (inactive). The GI50 (MDA-MB-231) was 19.8 µM (inactive), the GI50 (MDA-MB-435) was 16.6 µM (inactive) and the GI50 (MDA-N) was 16.4 µM (inactive). For the same compound, the GI50 (MOLT-4) was 1.69 µM (inactive), the GI50 (Malme-3M) was 15.8 µM (inactive) and the GI50 (NCI-H226) was > 48.5 µM (inactive). For the same compound, the GI50 (NCI-H23) was 17.5 µM (inactive), the GI50 (NCI-H460) was 24.6 µM (inactive) and the GI50 (NCI-H522) was 6.41 µM (inactive). For the same compound, the GI50 (NCI/ADR-RES) was 31.3 µM (inactive), the GI50 (OVCAR-3) was 18.2 µM (inactive) and the GI50 (OVCAR-4) was 20.8 µM (inactive). The GI50 (OVCAR-5) was 16.1 µM (inactive), the GI50 (OVCAR-8) was 26.7 µM (inactive) and the GI50 (PC-3) was 19.8 µM (inactive). For the same compound, the GI50 (RPMI-8226) was 1.6 µM (inactive), the GI50 (RXF 393) was 25.2 µM (inactive) and the GI50 (SF-268) was 30.1 µM (inactive). The GI50 (SF-295) was 41.4 µM (inactive), the GI50 (SF-539) was 13.3 µM (inactive) and the GI50 (SK-MEL-28) was 10.4 µM (inactive). For the same compound, the GI50 (SK-MEL-2) was 22.1 µM (inactive), the GI50 (SK-MEL-5) was 15.2 µM (inactive) and the GI50 (SK-OV-3) was > 100 µM (inactive). The GI50 (SN12C) was 18.7 µM (inactive), the GI50 (SNB-19) was 19.1 µM (inactive) and the GI50 (SNB-75) was 12.6 µM (inactive). The GI50 (SR) was 2.49 µM (inactive), the GI50 (SW-620) was 4.95 µM (inactive) and the GI50 (T47D) was 21.7 µM (inactive). For the same compound, the GI50 (TK-10) was 15.6 µM (inactive), the GI50 (U-251) was 13.9 µM (inactive) and the GI50 (UACC-257) was 6.38 µM (inactive). For the same compound, the GI50 (UACC-62) was 16.1 µM (inactive) and the GI50 (UO-31) was 16.9 µM (inactive).
